These results are taken from ChEMBL document CHEMBL4000195, “Design and synthesis of novel 7-aminosubstituted pyrido[2,3-b]pyrazines exhibiting anti-breast cancer activity” (Eur J Med Chem, 2017).

SMILES strings stand for the structures. Calls of active or inactive are those of the source. The rule behind the calls is not given here. Bounds are passed on as bounds.

For series [1], the system named is MDA-MB-231. Briefly: Cytotoxicity against human MDA-MB-231 cells at 10 uM by MTT assay. The class given is functional.
Series [2] relates to HCC1954. In words: Cytotoxicity against human HCC1954 cells at 5 uM by MTT assay. The class given is functional. (Formazan colour is commonly taken as a measure of viable cells.)
The target of series [3] is Platelet-derived growth factor receptor beta (Homo sapiens) (UniProt P09619). In words: Inhibition of recombinant human GST-tagged PDGFR-beta (557-end residues) transphosphorylation activity expressed in baculovirus infected Sf9 cells using poly[Glu:Tyr] (4:1) as substrate after 60 mins.
Platelet-derived growth factor receptor beta (Homo sapiens), sequence (P09619 whole entry): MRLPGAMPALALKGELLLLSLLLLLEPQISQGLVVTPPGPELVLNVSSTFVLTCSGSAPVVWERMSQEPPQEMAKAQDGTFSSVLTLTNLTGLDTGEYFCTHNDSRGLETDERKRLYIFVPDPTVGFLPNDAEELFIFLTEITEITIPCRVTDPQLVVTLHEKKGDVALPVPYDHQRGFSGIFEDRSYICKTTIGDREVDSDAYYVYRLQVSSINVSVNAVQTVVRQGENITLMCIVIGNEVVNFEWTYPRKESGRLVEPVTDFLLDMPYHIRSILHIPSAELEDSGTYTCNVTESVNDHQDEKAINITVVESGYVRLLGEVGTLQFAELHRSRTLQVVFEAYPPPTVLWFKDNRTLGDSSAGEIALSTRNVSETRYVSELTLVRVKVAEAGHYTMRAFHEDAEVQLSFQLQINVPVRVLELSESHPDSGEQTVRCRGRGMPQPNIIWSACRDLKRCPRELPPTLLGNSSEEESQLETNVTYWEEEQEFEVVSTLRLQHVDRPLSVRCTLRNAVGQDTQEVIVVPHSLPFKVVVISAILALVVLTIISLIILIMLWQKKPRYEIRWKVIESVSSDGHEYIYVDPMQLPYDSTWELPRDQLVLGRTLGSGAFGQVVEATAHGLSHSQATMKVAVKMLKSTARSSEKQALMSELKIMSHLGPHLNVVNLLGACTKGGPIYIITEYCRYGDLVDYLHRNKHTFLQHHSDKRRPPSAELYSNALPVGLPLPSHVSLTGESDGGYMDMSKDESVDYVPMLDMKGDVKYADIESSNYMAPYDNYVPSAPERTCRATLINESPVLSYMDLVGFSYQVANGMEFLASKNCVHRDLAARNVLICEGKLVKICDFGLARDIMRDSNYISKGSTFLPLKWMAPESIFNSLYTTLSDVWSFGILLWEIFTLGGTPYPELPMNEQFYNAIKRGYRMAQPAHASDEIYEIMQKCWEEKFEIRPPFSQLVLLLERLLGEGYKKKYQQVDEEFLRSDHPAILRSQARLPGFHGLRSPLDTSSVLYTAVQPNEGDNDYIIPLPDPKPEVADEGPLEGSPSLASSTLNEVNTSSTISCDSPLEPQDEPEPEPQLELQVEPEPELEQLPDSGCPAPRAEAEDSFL
The subject of series [4] is T47D. In words: Cytotoxicity against human T47D cells at 5 uM by MTT assay. The series is classed as functional.
In series [5] the test system is MCF7. Briefly: Cytotoxicity against human MCF7 cells by MTT assay. The class given is functional, cell-based.
In series [6] the target is Phosphatidylinositol 4,5-bisphosphate 3-kinase catalytic subunit alpha isoform (Homo sapiens, UniProt P42336). Briefly: Inhibition of PI3Kalpha catalytic domain (unknown origin) using PIP2 liposomes as substrate in presence of biotin-labeled PIP3 and GST-GRP1-PH by streptavidin-HRP based assays.
The subject of series [7] is MDA-MB-231. Briefly: Cytotoxicity against human MDA-MB-231 cells at 5 uM by MTT assay. The series is classed as functional.
Series [8] deals with Dual specificity tyrosine-phosphorylation-regulated kinase 1A (Rattus norvegicus) (UniProt Q63470). Briefly: Inhibition of rat DYRK1A using myelin basic protein as substrate in presence of [gamma33P]ATP after 30 mins by scintillation counting method.
Series [9] concerns MCF7. In words: Cytotoxicity against human MCF7 cells at 10 uM by MTT assay. The series is classed as functional.
For a further series, the species on record is Sus scrofa. In words: Inhibition of pig CK1delta/epsilon.
The next series deals with SK-BR-3. Briefly: Cytotoxicity against human SKBR3 cells by MTT assay. The class given is functional, cell-based.
In series [10] the target is Mast/stem cell growth factor receptor Kit (Homo sapiens) (UniProt P10721). In words: Inhibition of recombinant human GST-tagged KIT (544-end residues) transphosphorylation activity expressed in baculovirus infected Sf9 cells using poly[Glu:Tyr] (4:1) as substrate after 60 mins.
Mast/stem cell growth factor receptor Kit (Homo sapiens), sequence (P10721 whole entry): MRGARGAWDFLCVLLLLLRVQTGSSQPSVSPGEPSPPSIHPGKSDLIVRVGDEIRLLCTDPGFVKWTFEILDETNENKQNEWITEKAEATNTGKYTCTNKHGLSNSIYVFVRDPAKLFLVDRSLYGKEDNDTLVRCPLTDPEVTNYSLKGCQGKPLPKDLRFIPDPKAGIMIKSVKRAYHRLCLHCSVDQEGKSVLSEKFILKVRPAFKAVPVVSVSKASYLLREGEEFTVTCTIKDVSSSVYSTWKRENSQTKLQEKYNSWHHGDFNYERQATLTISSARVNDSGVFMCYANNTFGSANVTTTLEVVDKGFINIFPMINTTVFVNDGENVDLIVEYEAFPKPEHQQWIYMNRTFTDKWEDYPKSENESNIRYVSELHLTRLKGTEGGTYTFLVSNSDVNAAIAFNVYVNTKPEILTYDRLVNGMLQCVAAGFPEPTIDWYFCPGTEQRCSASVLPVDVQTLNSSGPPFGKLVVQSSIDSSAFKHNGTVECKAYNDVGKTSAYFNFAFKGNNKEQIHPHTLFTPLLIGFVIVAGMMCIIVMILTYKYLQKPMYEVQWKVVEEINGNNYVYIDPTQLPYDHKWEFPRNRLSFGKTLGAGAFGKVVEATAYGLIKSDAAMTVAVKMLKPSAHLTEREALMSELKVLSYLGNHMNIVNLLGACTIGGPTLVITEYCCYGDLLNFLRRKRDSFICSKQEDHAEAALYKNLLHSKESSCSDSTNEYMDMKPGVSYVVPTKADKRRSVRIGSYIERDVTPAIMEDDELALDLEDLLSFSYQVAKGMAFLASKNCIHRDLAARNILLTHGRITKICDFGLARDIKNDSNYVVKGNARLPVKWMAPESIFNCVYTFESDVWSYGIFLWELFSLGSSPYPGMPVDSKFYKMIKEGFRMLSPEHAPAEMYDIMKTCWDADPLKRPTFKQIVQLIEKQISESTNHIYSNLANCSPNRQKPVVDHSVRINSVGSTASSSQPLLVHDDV
The subject of series [11] is HCC1954. In words: Cytotoxicity against human HCC1954 cells at 10 uM by MTT assay. The class given is functional.
Series [12] addresses Dual specificity protein kinase CLK1 (Mus musculus) (UniProt P22518). Briefly: Inhibition of mouse CLK1.
In series [13] the test system is T47D. In words: Cytotoxicity against human T47D cells by MTT assay. The series is classed as functional, cell-based.
In series [14] the target is Receptor-type tyrosine-protein kinase FLT3 (Homo sapiens) (UniProt P36888). Briefly: Inhibition of recombinant human GST-tagged FLT3 (571 to 993 residues) transphosphorylation activity expressed in baculovirus infected Sf9 cells using poly[Glu:Tyr] (4:1) as substrate after 60 mins.
Series [15] addresses Glycogen synthase kinase-3 (Sus scrofa) (UniProt B2LUN4+I6LNT8). Briefly: Inhibition of pig GSK3alpha/beta using GS-1 as substrate in presence of [gamma33P]ATP after 30 mins by scintillation counting method.
Series [16] deals with Aurora kinase B/Inner centromere protein (Homo sapiens) (UniProt Q96GD4+Q9NQS7). In words: Inhibition of human AURKB/INCENP. The class given is protein-complex assay.
Series [17] has as its system HCC1954. In words: Cytotoxicity against human HCC1954 cells by MTT assay. The class given is functional, cell-based.
For series [18], the target named is Vascular endothelial growth factor receptor 2 (Homo sapiens) (UniProt P35968). Briefly: Inhibition of recombinant human GST-tagged VEGFR-2 (789-end residues) transphosphorylation activity expressed in baculovirus infected Sf9 cells using poly[Glu:Tyr] (4:1) as substrate after 60 mins.
Vascular endothelial growth factor receptor 2 (Homo sapiens), sequence (P35968 whole entry): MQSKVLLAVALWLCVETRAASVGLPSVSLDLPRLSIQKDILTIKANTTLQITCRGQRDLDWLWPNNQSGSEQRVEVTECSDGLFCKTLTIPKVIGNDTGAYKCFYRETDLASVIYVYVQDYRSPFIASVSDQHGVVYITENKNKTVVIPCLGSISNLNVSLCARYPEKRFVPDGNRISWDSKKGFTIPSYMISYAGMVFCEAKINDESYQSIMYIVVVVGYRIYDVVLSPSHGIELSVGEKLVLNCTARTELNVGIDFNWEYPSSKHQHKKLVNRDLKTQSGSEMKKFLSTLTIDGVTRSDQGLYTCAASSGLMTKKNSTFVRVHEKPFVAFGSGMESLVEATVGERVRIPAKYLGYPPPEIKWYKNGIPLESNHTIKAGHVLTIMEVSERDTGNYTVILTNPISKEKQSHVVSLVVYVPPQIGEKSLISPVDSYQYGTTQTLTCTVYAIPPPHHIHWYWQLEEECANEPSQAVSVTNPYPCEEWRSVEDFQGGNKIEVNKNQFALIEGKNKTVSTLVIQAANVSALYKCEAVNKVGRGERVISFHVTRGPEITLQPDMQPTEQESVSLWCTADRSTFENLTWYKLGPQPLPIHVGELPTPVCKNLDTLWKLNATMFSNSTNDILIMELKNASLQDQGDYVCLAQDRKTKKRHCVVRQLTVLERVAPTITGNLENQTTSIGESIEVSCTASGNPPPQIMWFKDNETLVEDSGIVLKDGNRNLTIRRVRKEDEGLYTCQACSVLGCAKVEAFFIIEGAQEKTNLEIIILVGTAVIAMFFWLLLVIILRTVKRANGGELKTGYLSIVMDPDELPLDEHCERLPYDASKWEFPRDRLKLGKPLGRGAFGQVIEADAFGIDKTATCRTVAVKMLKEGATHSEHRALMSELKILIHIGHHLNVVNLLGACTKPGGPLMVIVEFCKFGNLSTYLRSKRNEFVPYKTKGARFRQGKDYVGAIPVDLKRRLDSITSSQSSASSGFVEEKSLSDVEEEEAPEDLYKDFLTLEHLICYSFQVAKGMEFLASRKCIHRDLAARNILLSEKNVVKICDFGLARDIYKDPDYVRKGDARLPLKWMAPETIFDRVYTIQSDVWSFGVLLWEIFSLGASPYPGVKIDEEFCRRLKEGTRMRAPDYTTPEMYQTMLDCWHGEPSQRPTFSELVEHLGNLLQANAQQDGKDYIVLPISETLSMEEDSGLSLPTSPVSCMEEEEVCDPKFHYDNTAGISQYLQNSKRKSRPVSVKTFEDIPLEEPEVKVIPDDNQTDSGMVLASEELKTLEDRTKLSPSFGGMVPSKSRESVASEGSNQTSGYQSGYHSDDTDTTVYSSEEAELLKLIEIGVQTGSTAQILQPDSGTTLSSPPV
Series [19] addresses Receptor-interacting serine/threonine-protein kinase 3 (Homo sapiens) (UniProt Q9Y572). Briefly: Inhibition of human RIPK3.
The target in series [20] is T1, Serine/threonine-protein kinase haspin (Homo sapiens) (UniProt Q8TF76).
T1 sequence (whole entry): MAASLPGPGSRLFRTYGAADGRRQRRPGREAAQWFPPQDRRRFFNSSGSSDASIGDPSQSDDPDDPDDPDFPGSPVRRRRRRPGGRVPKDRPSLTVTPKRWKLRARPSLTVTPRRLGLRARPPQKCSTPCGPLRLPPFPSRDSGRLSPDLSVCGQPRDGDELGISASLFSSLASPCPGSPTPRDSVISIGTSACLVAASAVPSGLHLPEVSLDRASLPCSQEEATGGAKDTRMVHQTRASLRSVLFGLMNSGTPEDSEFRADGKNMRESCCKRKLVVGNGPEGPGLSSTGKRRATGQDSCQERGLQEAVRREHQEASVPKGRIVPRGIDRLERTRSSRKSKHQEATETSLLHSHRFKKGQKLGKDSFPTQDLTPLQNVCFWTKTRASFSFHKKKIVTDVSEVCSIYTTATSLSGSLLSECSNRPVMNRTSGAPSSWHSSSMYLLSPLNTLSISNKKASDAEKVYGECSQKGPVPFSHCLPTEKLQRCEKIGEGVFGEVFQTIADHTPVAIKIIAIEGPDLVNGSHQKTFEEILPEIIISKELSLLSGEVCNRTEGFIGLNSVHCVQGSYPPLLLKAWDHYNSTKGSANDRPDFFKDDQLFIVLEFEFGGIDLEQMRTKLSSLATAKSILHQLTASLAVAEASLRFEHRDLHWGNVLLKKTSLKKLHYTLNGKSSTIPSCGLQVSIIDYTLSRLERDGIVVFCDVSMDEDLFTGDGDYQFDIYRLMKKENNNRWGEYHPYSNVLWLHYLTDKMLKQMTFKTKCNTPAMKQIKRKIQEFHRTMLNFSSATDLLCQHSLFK
Briefly: Inhibition of human HASPIN.

Series [21] has as its system MDA-MB-231. Briefly: Cytotoxicity against human MDA-MB-231 cells by MTT assay. The class given is functional, cell-based.
For series [22], the target named is Cyclin-dependent kinase 5/CDK5 activator 1 (Homo sapiens) (UniProt Q00535+Q15078). In words: Inhibition of human CDK5/p25 using histone H1 as substrate in presence of [gamma33P]ATP after 30 mins by scintillation counting method. The series is classed as protein-complex assay.
Cyclin-dependent kinase 5/CDK5 activator 1 (Homo sapiens), sequence (Q00535 whole entry): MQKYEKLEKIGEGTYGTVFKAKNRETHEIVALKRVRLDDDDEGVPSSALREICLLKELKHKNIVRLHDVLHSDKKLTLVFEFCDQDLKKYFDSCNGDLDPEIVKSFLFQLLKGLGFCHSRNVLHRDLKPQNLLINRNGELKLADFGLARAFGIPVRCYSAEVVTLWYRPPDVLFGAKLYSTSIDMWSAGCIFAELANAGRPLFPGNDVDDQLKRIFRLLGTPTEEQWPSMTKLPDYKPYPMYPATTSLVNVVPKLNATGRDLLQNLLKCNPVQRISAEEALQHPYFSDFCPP
Cyclin-dependent kinase 5/CDK5 activator 1 (Homo sapiens), sequence (Q15078 99-307 partner limits assumed): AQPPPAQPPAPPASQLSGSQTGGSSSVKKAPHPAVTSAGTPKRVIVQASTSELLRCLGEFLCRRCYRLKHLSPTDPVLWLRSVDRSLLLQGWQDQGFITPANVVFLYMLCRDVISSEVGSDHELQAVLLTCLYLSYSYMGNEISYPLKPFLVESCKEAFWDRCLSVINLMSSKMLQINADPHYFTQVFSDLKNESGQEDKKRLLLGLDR
Series [23] has as its system T47D. In words: Cytotoxicity against human T47D cells at 10 uM by MTT assay. The series is classed as functional.
Series [24] relates to MCF7. Briefly: Cytotoxicity against human MCF7 cells at 5 uM by MTT assay. The class given is functional.
Series [25] deals with HCC1954. Briefly: Anti-tumor activity against HER2-amplified human HCC1954 cells xenografted in NOD/SCID mouse assessed as tumor size at 10 mg/kg, ip administered once daily for 18 days measured after 1 hr last dose (reference value: 497 +/- 82 mm3). The series is classed as functional. In general terms: In xenograft studies the graft and the host belong to different species.

The nature of series [26]: AUC (0 to 8 hrs) in NOD/SCID mouse at 0.5 mg/kg, ip administered as single dose by LC-MS/MS method. The class given is ADME, organism-based. Further details: dose 0.5 mg/kg, time < 8 hr, route intraperitoneal. The note with it: in vivo.
The nature of series [27]: Tmax in NOD/SCID mouse at 0.5 mg/kg, po administered as single dose by LC-MS/MS method. The class given is ADME, organism-based. The note with it: in vivo.
A short description of series [28]: Cmax in NOD/SCID mouse at 0.5 mg/kg, po administered as single dose by LC-MS/MS method. The series is classed as ADME, organism-based. Details: dose 0.5 mg/kg, route oral. The note with it: in vivo.
Series [29] deals with Mus musculus. In words: Toxicity in NOD/SCID mouse assessed as phenotypic changes at 0.5 mg/kg, po administered as single dose. The class given is organism-based. The conditions noted are these: in vivo.
Series [30] can be described thus: AUC (0 to 8 hrs) in NOD/SCID mouse at 0.5 mg/kg, po administered as single dose by LC-MS/MS method. The class given is ADME, organism-based. Further details: time < 8 hr, dose 0.5 mg/kg, route oral. The conditions noted are these: in vivo.
Series [31] relates to Mus musculus. Briefly: Toxicity in NOD/SCID mouse assessed as phenotypic changes at 0.5 mg/kg, ip administered as single dose. The series is classed as organism-based. The note with it: in vivo.
Series [32] in a line: Cmax in NOD/SCID mouse at 0.5 mg/kg, ip administered as single dose by LC-MS/MS method. The class given is ADME, organism-based. Details: dose 0.5 mg/kg, route intraperitoneal. The note with it: in vivo.
Series [33] in a line: Tmax in NOD/SCID mouse at 0.5 mg/kg, ip administered as single dose by LC-MS/MS method. The class given is ADME, organism-based. The note with it: in vivo.

Dual specificity protein kinase CLK1 (Mus musculus), sequence (P22518 whole entry, looked up): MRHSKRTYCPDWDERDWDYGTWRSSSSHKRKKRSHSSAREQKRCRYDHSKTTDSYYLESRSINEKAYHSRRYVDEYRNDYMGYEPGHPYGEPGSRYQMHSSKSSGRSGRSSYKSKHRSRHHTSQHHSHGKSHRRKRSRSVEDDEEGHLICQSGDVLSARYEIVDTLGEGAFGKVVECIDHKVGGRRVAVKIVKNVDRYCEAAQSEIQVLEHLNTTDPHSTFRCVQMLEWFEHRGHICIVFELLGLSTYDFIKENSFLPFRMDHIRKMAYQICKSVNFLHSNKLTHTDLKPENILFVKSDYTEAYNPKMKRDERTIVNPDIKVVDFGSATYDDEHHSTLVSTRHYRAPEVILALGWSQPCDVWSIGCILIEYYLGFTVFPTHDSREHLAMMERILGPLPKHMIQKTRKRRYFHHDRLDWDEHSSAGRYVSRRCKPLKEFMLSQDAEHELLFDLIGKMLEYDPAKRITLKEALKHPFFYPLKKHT
Receptor-interacting serine/threonine-protein kinase 3 (Homo sapiens), sequence (Q9Y572 whole entry, looked up): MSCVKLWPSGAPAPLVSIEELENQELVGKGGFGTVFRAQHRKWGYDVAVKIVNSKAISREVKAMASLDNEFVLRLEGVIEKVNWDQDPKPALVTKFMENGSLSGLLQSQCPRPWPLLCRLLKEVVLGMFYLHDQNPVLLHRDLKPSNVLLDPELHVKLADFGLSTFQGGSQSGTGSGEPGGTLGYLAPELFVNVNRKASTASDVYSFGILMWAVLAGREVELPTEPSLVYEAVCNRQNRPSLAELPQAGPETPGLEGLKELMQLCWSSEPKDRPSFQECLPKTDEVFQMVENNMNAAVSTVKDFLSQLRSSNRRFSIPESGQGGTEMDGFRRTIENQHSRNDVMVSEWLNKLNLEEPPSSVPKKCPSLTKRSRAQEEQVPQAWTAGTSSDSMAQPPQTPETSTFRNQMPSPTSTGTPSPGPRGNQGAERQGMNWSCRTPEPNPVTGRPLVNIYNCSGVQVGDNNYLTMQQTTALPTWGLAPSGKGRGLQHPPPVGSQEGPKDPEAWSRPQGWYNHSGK

Consider `Cc1nc2nc(Oc3ccccc3)cnc2cc1NC(=O)Nc1ccccc1`, for which the Activity in the series with MDA-MB-231 [1], with HCC1954 [2], in the series with T47D [4], in the series on MDA-MB-231 [7], in the series on MCF7 [9] and with HCC1954 [11] was over 50% each time. The Activity in the series with T47D [23] and in the series on MCF7 [24] was over 50% each time. The inhibition entry (in [3]; in [6]; in series [8]; in the series listed under Sus scrofa; in series [10]; in series [12]) was “inactive” each time. The inhibition result in [14], in series [15], in series [16], in series [18], in series [19] and in series [20] was “inactive” each time. Also, the inhibition result in [22] is “inactive”. For the same compound, the half-maximal inhibitory concentration (IC50) was determined as 7 µM in the series with MCF7 [5]; 7.2 µM with SK-BR-3; 9.4 µM in the series on T47D [13]; 5.3 µM in the series on HCC1954 [17]; 5.1 µM in the series with MDA-MB-231 [21].
With `CS(=O)(=O)N1CCN(Cc2cc3nc(-c4cccc5[nH]ncc45)nc(N4CCOCC4)c3s2)CC1` [PICTILISIB], the IC50 with MCF7 [5] was 2 µM; in the series on SK-BR-3, 0.9 µM; with T47D [13] it was 1.2 µM; in the series with HCC1954 [17], 1.3 µM; with MDA-MB-231 [21] it was over 30 µM. Moreover, in the series with HCC1954 [25], the Activity stood at 350 mm3.
Take `Cc1nc2nc(Sc3ccccc3)cnc2cc1NC(=O)c1ccccc1`: the Activity with MDA-MB-231 [1], in the series with HCC1954 [2], with T47D [4], in the series with MDA-MB-231 [7], in the series on MCF7 [9] and with HCC1954 [11] was over 50% each time. The Activity entry in the series with Mus musculus [29] is reported as “Non-Toxic”; with Mus musculus [31] it was “Non-Toxic”; in the series on T47D [23], over 50%; in the series on MCF7 [24], over 50%. For the same compound, the figures for the AUC(0-t) at 8 h in series [26] and in [30] were 0.57 µM·h and 0.43 µM·h, respectively. The Tmax in series [27] was found to be 15 min; in series [33], 30 min. Further, the inhibition result (in [3]; in [6]; in [8]; in the series listed under Sus scrofa; in series [10]; in series [12]) was “inactive” throughout. Moreover, the inhibition entry in series [14], in [15], in [16], in series [18], in series [19] and in [20] was “inactive” in each case. In addition, the inhibition entry in series [22] is “inactive”. Moreover, the IC50 amounted to 4 µM in the series with MCF7 [5]; 3.7 µM in the series with SK-BR-3; 1.5 µM with T47D [13]; 4.5 µM in the series on HCC1954 [17]; 4 µM in the series with MDA-MB-231 [21]. In addition, the Cmax in series [28] stood at 320 nM; in series [32], 520 nM.

The IC50 is the point on the concentration scale where inhibition reaches its midpoint. As a reminder, the AUC(0-t) is the area under the concentration-time curve up to a stated or last time point. Low values mean low exposure, high ones high exposure. By Tmax is commonly meant the time from dosing to the highest level. As usually defined, the Cmax is the highest concentration seen after dosing.
